Entries after “also recorded” stand apart in the source; their conditions may differ. Read-outs that look alike come from different tables or passages of the source. Ends that are not written are not given here.

One assay addresses T1, rat KissR-1 (Rattus norvegicus, UniProt Q924U1).
T1 construct: expressed in transfected cells
Put plainly: [Ca^2+]i response (Fluo-4 AM, FlexStation) in rat KissR-1-transfected CHO-K1 cells. The class given is cell-based. The following applies: rat KissR-1 CHO-K1 cells, peak Fluo-4 fluorescence, 10^−12 to 10^−6 M, 37°C, four-parameter logistic, mean ± SEM from two independent experiments; for Emax: baseline normalized to 100%, 180 s recording. How it is done: CHO-K1 cells were cultured to semiconfluence in 12-well plates using Ham’s F12 medium supplemented with 10% fetal bovine serum and 1% antibiotic–antimycotic solution. Cells were transfected with different quantities of the recombinant plasmid, ranging from 3 to 5 µg, using Lipofectamine 2000 (Invitrogen, Cergy Pontoise, France) as previously described ([30]). Twenty-four hours after transfection, media were replaced by fresh F12 medium containing 1 mg/ml G418 (Geneticin; Life Technologies, Inc.). One week later, surviving cells were detached, diluted, and plated on 96-well plates at 0.7 cells/well. Monoclonal cell lines expressing rat KissR-1 (CHO-K1-rKissR-1) were followed daily by contrast phase microscopy. Seven independent monoclonal stable cell lines were obtained after a 3-week period of selection. By using qPCR, two cell lines were selected based on their expression levels being closest to physiological levels among all cell lines.
To compare the KissR-1 agonistic activities of eel Kp1(10), Kp2(10), Kp1(15), and Kp2(12), the level of [Ca^2+]i after stimulation of CHO-K1 cells stably expressing KissR-1 by these peptides was monitored by spectrofluorometry as previously described ([30], [31]) with slight modifications. Briefly, after 24 h in culture, cells were incubated for 1 h in a humidified incubator (37°C, 5% CO2) with 2 µM Fluo-4 acetoxymethyl ester (AM) calcium dye (Life Technologies, Saint Aubin, France) in Hank’s Buffer Saline Solution (HBSS; Life Technologies) buffered with 5 mM HEPES and supplemented with 2.5 mM probenecid (Sigma-Aldrich, Saint-Quentin Fallavier, France). Cells were washed twice with HBSS/HEPES/probenecid to remove Fluo-4 AM from the incubation medium and incubated in 150 µl of the same medium at 37°C for 15 min. Fluorescence was recorded using a Flexstation 3 fluorescence plate reader system (Molecular Devices, Saint-Grégoire, France) during 180 s with an excitation wavelength of 480 nm, an emission wavelength of 525 nm, and a cutoff filter of 515 nm. After 15 s recording in basal conditions, 50 µl of graded concentration (10^−12 to 10^−6 M) of different peptides (four-fold final concentration) was added to the incubation medium with the built-in eight-channel pipettor at a rate of 62 µl/s to assess their agonistic activity. After subtraction of mean fluorescence background from control wells without Fluo-4 AM, baseline was normalized to 100%, and fluorescence peak values were determined for each concentration of peptide. Potency (EC50) and efficacy (Emax) (Table 3) were determined with the Prism 6.0 software (GraphPad Software In., La Jolla, CA, USA) using a four-parameter logistic equation to fit peak fluorescence data.

Assay [1] has as its system LH release by pituitary cells. The following applies: cited from earlier work. The source says:
(§1) This paradoxical inhibitory effect contrasts with the general action of kisspeptin as an activator of puberty and reproduction, mostly at the brain level ([70]), but also directly on the pituitary [for reviews see Ref. ([71], [72])]. […] In contrast, in other studied teleosts, the action of kisspeptin is generally ...

Another assay concerns KissR-2. The following applies: cited from earlier work. From the text:
(§2) For clarity, the nomenclature of Pasquier et al ([19], [24]) for KissR will be used in the following paragraphs. In teleost models with two receptors, various studies have shown differential affinities of Kiss peptides toward homologous receptors.

Assay [2] relates to lhβ expression by eel pituitary cells. The following applies: eel pituitary cells in primary culture; cited from earlier work. From the text: In the eel, three Kiss receptor genes have been characterized, i.e., KissR-1, KissR-2, and KissR-3 ([19], [22]–[24]). Their expressions mainly occur in the brain, pituitary, and gonads ([19]).
Assay [3] deals with human KissR-1. More on the design: method as in PMID 19164475. The following applies: CV-1 cells; cited from earlier work.
Assay [4] concerns fshβ expression by eel pituitary cells. The following applies: eel pituitary cells in primary culture; cited from earlier work.
Another assay relates to KissR-3. The following applies: cited from earlier work.
Description: as §2

Assay [5] deals with human KissR-1. More on the design: method as in PMID 26047834. The following applies: CHO cells; cited from earlier work.
The next assay deals with LH release. The following applies: cited from earlier work.
Description: as §1

In a further assay the test system is lh expression. The following applies: cited from earlier work.
Description: as §1

For a further assay, the system named is pituitary gnrh-r mRNAs. The following applies: female striped bass at dummy run phase, chronic administration in vivo; cited from earlier work. The source says: This receptor is the one increased during experimental maturation in both female and male eels ([25]). To the best of our knowledge, only a single other study investigated the effect of kisspeptin on GnRH receptor in teleost. In female striped bass at dummy run phase (ovarian development is initiated but not completed), chronic administration in vivo of both Kp1(15) and Kp2(12) induces a decrease ...

The next assay has as its system plasma LH levels. The following applies: striped bass, im, cited from earlier work.
Description: as §1

The next assay deals with FSH gene transcription. The following applies: striped bass; cited from earlier work.
Description: as §1

The next assay relates to FSH peptide secretion. The following applies: striped bass; cited from earlier work.
Description: as §1

The subject of the next assay is FSH release. The following applies: sea bass; cited from earlier work.
Description: as §1

In assay [6] the test system is expression of LH by pituitary cells. The following applies: goldfish pituitary cells, mixed sexes at late stages of sexual regression; cited from earlier work.
Description: as §1

In assay [7] the test system is human KissR-1. More on the design: method as in PMID 18509165. The following applies: COS-7 cells; cited from earlier work.
Where [8] appears, read: pituitary cells from sexually mature female goldfish.
Setting [9] is: zebrafish, COS-7, CHO-K1, and HEK293 cells.
Where [10] appears, read: pituitary cells from mature male sea bass.
Where [11] appears, read: striped bass, COS-7 cells, Kp1(15) versus Kp2(12).

T1 sequence (Q924U1 whole entry): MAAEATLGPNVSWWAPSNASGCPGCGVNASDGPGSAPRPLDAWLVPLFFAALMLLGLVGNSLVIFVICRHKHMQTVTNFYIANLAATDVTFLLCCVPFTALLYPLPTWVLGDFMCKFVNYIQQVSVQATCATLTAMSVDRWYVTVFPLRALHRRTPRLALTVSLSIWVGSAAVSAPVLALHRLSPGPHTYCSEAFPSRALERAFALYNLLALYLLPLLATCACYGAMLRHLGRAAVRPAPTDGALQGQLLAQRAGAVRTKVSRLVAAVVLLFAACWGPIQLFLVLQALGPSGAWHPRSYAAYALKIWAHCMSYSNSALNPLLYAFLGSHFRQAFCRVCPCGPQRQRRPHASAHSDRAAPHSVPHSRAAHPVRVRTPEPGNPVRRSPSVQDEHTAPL

Turning to ENFSSYNWNSFGLRY-NH2 [Eel Kp1(15)], at rat KissR-1, the Emax – broadly, the maximal effect, on the per cent scale that the assay sets – stood at 277 ± 5.3% and the EC50 (in general, the concentration that produces a half-maximal response) turned out to be 11.8 ± 2 nM.
Regarding FNRNPFGLRF-NH2 [Eel Kp2(10)], at rat KissR-1, the Emax was determined as 260 ± 9.5% and the 50% effective concentration (EC50) turned out to be 56.6 ± 27.7 nM.
For the substance “FNYNPFGLRF [goldfish Kp2(10), homologous goldfish Kp2(10)]”, the “effect on LH release” value in assay [1] (setting [8]) was “inactive on LH release”.
As for “FNYNPFGLRF [zebrafish Kp2(10), heterologous kisspeptin]”, the “activation of KissR-2” value with KissR-2 (setting [9]) is “activated by both Kp1(10) and Kp2(10)”. Moreover, in [2], the “effect on lhβ expression, heterologous kisspeptins” value was “can inhibit lhβ expression; also recorded: specific in vitro inhibitory effect”. For the same substance, the “activation of human KissR-1” value in the assay on human KissR-1 [3] is reported as “highly efficient”. Further, in assay [4], the “effect on fshβ expression, heterologous kisspeptins” value is “no effect on fshβ”.
For “HQDMSSYNFNSFGLRY [chub mackerel Kp1(16), chub mackerel predicted mature peptide]”, the “activity on KissR-3” value with KissR-3 (chub mackerel, Kp1(16) versus Kp1(15)) is recorded as “more active than the shorter Kp1(15)”.
In the case of “QDVSSYNLNSFGLRY [sea bass Kp1(15), sea bass Kiss peptide]”, the “activation of human KissR-1” value in the assay with human KissR-1 [5] is “can efficiently activate human KissR-1”. Besides, the “preference for KissR-2” value with KissR-2 (sea bass, CHO cells) is “preference for KissR-2”. Moreover, in the assay on LH release (setting [10]), the “effect on LH release” value was “no effect”. For the same substance, in the assay on lh expression (setting [10]), the “effect on lh expression” value is on record as “no effect”.
With “QDVSSYNLNSFGLRY [striped bass Kp1(15), striped bass Kiss peptide]”, the “activation of KissR-3” value in the assay with KissR-3 (setting [11]) is “activate KissR-3 with the same potency”. The “effect on pituitary gnrh-r mRNAs” value with pituitary gnrh-r mRNAs is “induces a decrease of pituitary gnrh-r mRNAs”. The “effect on plasma LH levels” value is given as “could increase LH levels at gonadal recrudescence” in the assay with plasma LH levels (gonadal recrudescence), “induces plasma LH levels in a stage-dependent manner” in the assay on plasma LH levels (overall) and “no effect on LH at pubertal stage” in the assay with plasma LH levels (pubertal stage). Further, the “effect on FSH gene transcription” value in the assay with FSH gene transcription is recorded as “stimulate FSH”. In addition, the “effect on FSH peptide secretion” value in the assay with FSH peptide secretion is recorded as “stimulate FSH”. Besides, the “effect on lh expression” value with lh expression (striped bass, in vitro) is on record as “inhibitory effect on lh expression”.
For “QNVAYYNLNSFGLRY [zebrafish Kp1(15), heterologous kisspeptin]”, in the assay on KissR-2 (zebrafish, CV-1 cells), the “preference for KissR-2” value is on record as “preference for KissR-2”. The “effect on lhβ expression, heterologous kisspeptins” value in assay [2] is “can inhibit lhβ expression; also recorded: specific in vitro inhibitory effect”. For the same substance, the “activation of human KissR-1” value in the assay on human KissR-1 [3] is “highly efficient”. Moreover, in [4], the “effect on fshβ expression, heterologous kisspeptins” value is on record as “no effect on fshβ”.
For “SKFNFNPFGLRF [sea bass Kp2(12), sea bass Kiss peptide]”, the “activation of human KissR-1” value with human KissR-1 [5] is listed as “can efficiently activate human KissR-1”. In the assay on KissR-3 (sea bass, CHO cells), the “potency for activating KissR-3” value is given as “higher potency for activating KissR-3”. For the same substance, in the assay with LH release (setting [10]), the “effect on LH release” value is “induces both lh expression and LH release”. Moreover, in the assay with lh expression (setting [10]), the “effect on lh expression” value was “induces both lh expression and LH release”. Further, the “in vitro FSH release” value in the assay on FSH release is listed as “can induce in vitro FSH release”.
For the substance “SKFNFNPFGLRF [striped bass Kp2(12), striped bass Kiss peptide]”, in the assay on KissR-2 (striped bass, COS-7 cells, Kp2(12) versus Kp1(15)), the “activation of KissR-2” value is “more efficiently activated”. Moreover, the “activation of KissR-3” value with KissR-3 (setting [11]) was “activate KissR-3 with the same potency”. Besides, in the assay with pituitary gnrh-r mRNAs, the “effect on pituitary gnrh-r mRNAs” value is “induces a decrease of pituitary gnrh-r mRNAs”. Also, the “effect on plasma LH levels” value in the assay with plasma LH levels (gonadal recrudescence) is reported as “could increase LH levels at gonadal recrudescence”; in the assay with plasma LH levels (overall), “induces plasma LH levels in a stage-dependent manner”. In the assay with FSH gene transcription, the “effect on FSH gene transcription” value is given as “stimulate FSH”. Further, the “effect on LH release” value in the assay with LH release (striped bass, in vitro) is “stimulated LH release”. In the assay on FSH peptide secretion, the “effect on FSH peptide secretion” value was “stimulate FSH”.
On rat KissR-1, SKFNRNPFGLRF-NH2 [Eel Kp2(12)] returned an Emax of 256 ± 6.7% and a concentration giving a half-maximal response (EC50) of 135 ± 18.9 nM.
Take “SKFNYNPFGLRF [zebrafish Kp2(12), zebrafish Kiss peptide]”: in the assay with KissR-3 (zebrafish, CV-1 cells), the “potency for activating KissR-3” value was “higher potency for activating KissR-3”. The “activation of human KissR-1” value in the assay on human KissR-1 [3] is “highly efficient”.
For “YNLNSFGLRY [goldfish Kp1(10), homologous goldfish Kp1(10)]”, the “effect on LH release” value was “increases the release and expression of LH” in assay [1] (goldfish pituitary cells, mixed sexes at late stages of sexual regression); “inactive on LH release” in assay [1] (setting [8]). The “effect on LH expression” value in assay [6] was “increases the release and expression of LH”.
For the substance “YNLNSFGLRY [sea bass Kp1(10), sea bass Kiss peptide]”, the “activation of human KissR-1” value in the assay on human KissR-1 [5] is listed as “can efficiently activate human KissR-1”.
“YNLNSFGLRY [zebrafish Kp1(10), heterologous kisspeptin]”: the “activation of KissR-2” value in the assay with KissR-2 (setting [9]) is “activated by both Kp1(10) and Kp2(10)”. The “activation of KissR-3” value with KissR-3 (setting [9]) is “preferentially activated by Kp1(10)”. Further, the “effect on lhβ expression, heterologous kisspeptins” value in [2] is recorded as “can inhibit lhβ expression; also recorded: specific in vitro inhibitory effect”. In assay [4], the “effect on fshβ expression, heterologous kisspeptins” value was “no effect on fshβ”. Besides, the “activation of human KissR-1” value with human KissR-1 [7] is listed as “highly efficient”.
On rat KissR-1, YNWNSFGLRY-NH2 [Eel Kp1(10)] displayed a maximum response (Emax) of 236 ± 8.4% and an EC50 of 8.5 ± 4.5 nM.
In the case of “human Kp1(14): heterologous kisspeptin (DLPNYNWNSFGLRF; ends and bridges not checked; UniProt Q15726 108-121, looked up)”, in assay [2], the “effect on lhβ expression, heterologous kisspeptins” value is “can inhibit lhβ expression; also recorded: specific in vitro inhibitory effect”. Also, the “effect on fshβ expression, heterologous kisspeptins” value in assay [4] is “no effect on fshβ”.
